For one test, the target named is Bcl-2 protein (Homo sapiens (Human), UniProt P10415). The experiment in a line: Inhibition of Bcl-2 by the fluorescence polarisation technique. Conditions: fluorescence polarisation test; concentration that inhibits fluorescence polarisation by 50%; read-out: IC50 (nM) Bcl-2 FP. The class given is binding. The procedure: The fluorescence polarisation tests were carried out on microplates (384 wells). […] After incubation for 2 hours, the fluorescence polarisation is measured.
Sequence of Bcl-2 protein (P10415 whole entry): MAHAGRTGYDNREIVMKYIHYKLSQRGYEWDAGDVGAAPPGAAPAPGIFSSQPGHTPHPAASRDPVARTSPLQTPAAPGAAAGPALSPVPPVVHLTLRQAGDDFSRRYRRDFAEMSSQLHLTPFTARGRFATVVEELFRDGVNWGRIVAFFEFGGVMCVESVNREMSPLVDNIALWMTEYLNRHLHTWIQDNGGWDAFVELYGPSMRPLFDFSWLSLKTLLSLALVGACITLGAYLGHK
(In general: In fluorescence polarisation assays a small probe gives low polarisation when free and higher when bound to something large.)

For test [1], the system named is RS4;11 leukaemia tumour line. The experiment in a line: In vitro cytotoxicity (Microculture Tetrazolium Assay, 48 hours). It counts as cell-based. The following applies: Homo sapiens, RS4;11 cells, 48 hours exposure, MTT, concentration that inhibits cell viability by 50%, read-out: IC50 (nM) MTT RS4. On the procedure: The cytotoxicity studies were carried out on the RS4;11 leukaemia tumour line.
The cells are distributed onto microplates and exposed to the test compounds for 48 hours.

Where a name gives a salt, the structure may show the parent alone.

For the compound `Cn1ccc2cc(N(C(=O)c3cc(-c4cc5c(cc4C(=O)N4Cc6ccccc6C[C@H]4CN4CCOCC4)OCCCO5)n4c3CCCC4)c3ccc(O)cc3)ccc21` [Example 32, N-(4-Hydroxyphenyl)-N-(1-methyl-1H-indol-5-yl)-3-{8-[((3S)-3-(4-morpholinylmethyl)-3,4-dihydro-2(1H)-isoquinolinyl)carbonyl]-3,4-dihydro-2H-1,5-benzodioxepin-7-yl}-5,6,7,8-tetrahydro-1-indolizine carboxamide hydrochloride], the IC50 at Bcl-2 protein is 34 nM; in test [1] it was 71.3 nM.
In the same order, the values of `COc1ccc(C(=O)N2Cc3ccccc3C[C@H]2CN2CCOCC2)c(-c2cc(C(=O)N(c3ccc(O)cc3)c3ccc4c(ccn4C)c3)c3n2CCCC3)c1` [Example 33, N-(4-Hydroxyphenyl)-3-{5-methoxy-2-[((3S)-3-(4-morpholinylmethyl)-3,4-dihydro-2(1H)-isoquinolinyl)carbonyl]phenyl}-N-(1-methyl-1H-indol-5-yl)-5,6,7,8-tetrahydro-1-indolizine carboxamide hydrochloride] are 23 nM and 12.2 nM.
In the same order, the values of `O=C(c1cc(-c2cc3c(cc2C(=O)N2Cc4ccccc4C[C@H]2CN2CCOCC2)OCCO3)n2c1CCCC2)N(c1ccccc1)c1ccc(O)cc1` [Example 34, N-(4-Hydroxyphenyl)-3-{7-[((3S)-3-(4-morpholinylmethyl)-3,4-dihydro-2(1H)-isoquinolinyl)carbonyl]-2,3-dihydro-1,4-benzdioxin-6-yl}-N-phenyl-5,6,7,8-tetrahydro-1-indolizine carboxamide hydrochloride] are 27 nM and 65.8 nM.
Taken in the same sequence, the figures for `Cn1ccc2cc(N(C(=O)c3cc(-c4cc5c(cc4C(=O)N4Cc6ccccc6C[C@H]4CN4CCOCC4)OCCO5)n4c3CCCC4)c3ccc(O)cc3)ccc21` [Example 35, N-(4-Hydroxyphenyl)-N-(1-methyl-1H-indol-5-yl)-3-{7-[((3S)-3-(4-morpholinylmethyl)-3,4-dihydro-2(1H)-isoquinolinyl)carbonyl]-2,3-dihydro-1,4-benzodioxin-6-yl}-5,6,7,8-tetrahydro-1-indolizine carboxamide] were 15 nM and 11.7 nM.
As to `Cn1ncc2cc(N(C(=O)c3cc(-c4cc5c(cc4C(=O)N4Cc6ccccc6C[C@H]4CN4CCOCC4)OCCO5)n4c3CCCC4)c3ccc(O)cc3)ccc21` [Example 39, N-(4-Hydroxyphenyl)-N-(1-methyl-1H-indazol-5-yl)-3-{7-[((3S)-3-(4-morpholinylmethyl)-3,4-dihydro-2(1H)-isoquinolinyl)carbonyl]-2,3-dihydro-1,4-benzodioxin-6-yl}-5,6,7,8-tetrahydro-1-indolizine carboxamide hydrochloride], the IC50 at Bcl-2 protein amounted to 16 nM; in test [1] it was 14.1 nM.
Taken in the same sequence, the figures for `CN1CCCc2cc(N(C(=O)c3cc(-c4cc5c(cc4C(=O)N4Cc6ccccc6C[C@H]4CN4CCOCC4)OCCO5)n4c3CCCC4)c3ccc(O)cc3)ccc21` [Example 40, N-(4-Hydroxyphenyl)-N-(1-methyl-1,2,3,4-tetrahydro-6-quinolinyl)-3-{7-[((3S)-3-(4-morpholinylmethyl)-3,4-dihydro-2(1H)-isoquinolinyl)carbonyl]-2,3-dihydro-1,4-benzodioxin-6-yl}-5,6,7,8-tetrahydro-1-indolizine carboxamide hydrochloride] were 15 nM and 32.2 nM.
In the case of `CN1CCOc2cc(N(C(=O)c3cc(-c4cc5c(cc4C(=O)N4Cc6ccccc6C[C@H]4CN4CCOCC4)OCCO5)n4c3CCCC4)c3ccc(O)cc3)ccc21` [Example 41, N-(4-Hydroxyphenyl)-N-(4-methyl-3,4-dihydro-2H-1,4-benzoxazin-7-yl)-3-{7-[((3S)-3-(4-morpholinylmethyl)-3,4-dihydro-2(1H)-isoquinolinyl)carbonyl]-2,3-dihydro-1,4-benzodioxin-6-yl}-5,6,7,8-tetrahydro-1-indolizine carboxamide hydrochloride], the IC50 on Bcl-2 protein was determined as 26 nM; in test [1], 44 nM.
Regarding `Cn1ncc2cc(N(C(=O)c3cc(-c4cc(Cl)ccc4C(=O)N4Cc5ccccc5C[C@H]4CN4CCOCC4)n4c3CCCC4)c3ccc(O)cc3)ccc21` [Example 42, 3-{5-Chloro-2-[((3S)-3-(4-morpholinylmethyl)-3,4-dihydro-2(1H)-isoquinolinyl)carbonyl]phenyl}-N-(4-hydroxyphenyl)-N-(1-methyl-1H-indazol-5-yl)-5,6,7,8-tetrahydro-1-indolizine carboxamide hydrochloride], the figures for the IC50 (at Bcl-2 protein; in test [1]) were 13 nM and 53.6 nM, respectively.
Regarding `Cn1ncc2cc(N(C(=O)c3cc(-c4cc(F)ccc4C(=O)N4Cc5ccccc5C[C@H]4CN4CCOCC4)n4c3CCCC4)c3ccc(O)cc3)ccc21` [Example 44, 3-{5-Fluoro-2-[((3S)-3-(4-morpholinylmethyl)-3,4-dihydro-2(1H)-isoquinolinyl)carbonyl]phenyl}-N-(4-hydroxyphenyl)-N-(1-methyl-1H-indazol-5-yl)-5,6,7,8-tetrahydro-1-indolizine carboxamide hydrochloride], the IC50 was 14 nM on Bcl-2 protein and 45 nM in test [1].
Turning to `CN1CC2(CC2)c2cc(N(C(=O)c3cc(-c4cc(Cl)ccc4C(=O)N4Cc5ccccc5C[C@H]4CN4CCOCC4)n4c3CCCC4)c3ccc(O)cc3)ccc21` [Example 45, 3-{5-Chloro-2-[((3S)-3-(4-morpholinylmethyl)-3,4-dihydro-2(1H)-isoquinolinyl)carbonyl]phenyl}-N-(4-hydroxyphenyl)-N-(1′-methyl-1′,2′-dihydrospiro[cyclopropane-1,3′-indol]-5′-yl)-5,6,7,8-tetrahydro-1-indolizine carboxamide], the IC50 stood at 47 nM on Bcl-2 protein and 76.8 nM in test [1].
With `Cn1ccc2cc(N(C(=O)c3cc(-c4cc(Cl)ccc4C(=O)N4Cc5ccccc5C[C@H]4CN4CCCOCC4)n4c3CCCC4)c3ccc(O)cc3)ccc21` [Example 46, 3-{5-Chloro-2-[((3S)-3-(1,4-oxazepan-4-ylmethyl)-3,4-dihydro-2(1H)-isoquinolinyl)carbonyl]phenyl}-N-(4-hydroxyphenyl)-N-(1-methyl-1H-indol-5-yl)-5,6,7,8-tetrahydro-1-indolizine carboxamide hydrochloride], the IC50 stood at 21 nM at Bcl-2 protein and 56.8 nM in test [1].
In the same order, the values of `Cn1ccc2cc(N(C(=O)c3cc(-c4cc(C(F)(F)F)ccc4C(=O)N4Cc5ccccc5C[C@H]4CN4CCOCC4)n4c3CCCC4)c3ccc(O)cc3)ccc21` [Example 47, N-(4-Hydroxyphenyl)-N-(1-methyl-1H-indol-5-yl)-3-[2-[((3S)-3-(4-morpholinylmethyl)-3,4-dihydro-2(1H)-isoquinolinyl)carbonyl]-5-(trifluoromethyl)-phenyl]-5,6,7,8-tetrahydro-1-indolizine carboxamide hydrochloride] are 58 nM and 194 nM.
On to `Cn1ccc2cc(N(C(=O)c3cc(-c4cc(OC(F)(F)F)ccc4C(=O)N4Cc5ccccc5C[C@H]4CN4CCOCC4)n4c3CCCC4)c3ccc(O)cc3)ccc21` [Example 48, N-(4-Hydroxyphenyl)-N-(1-methyl-1H-indol-5-yl)-3-[2-[((3S)-3-(4-morpholinylmethyl)-3,4-dihydro-2(1H)-isoquinolinyl)carbonyl]-5-(trifluoromethoxy)-phenyl]-5,6,7,8-tetrahydro-1-indolizine carboxamide hydrochloride], for which the values for the IC50 (at Bcl-2 protein; in test [1]) were 130 nM and 229 nM, respectively.
As to `CN1CC(C)(C)c2cc(N(C(=O)c3cc(-c4cc(Cl)ccc4C(=O)N4Cc5ccccc5C[C@H]4CN4CCOCC4)n4c3CCCC4)c3ccc(O)cc3)ccc21` [Example 49, 3-{5-Chloro-2-[((3S)-3-(4-morpholinylmethyl)-3,4-dihydro-2(1H)-isoquinolinyl)carbonyl]phenyl}-N-(4-hydroxyphenyl)-N-(1,3,3-trimethyl-2,3-dihydro-1H-indol-5-yl)-5,6,7,8-tetrahydro-1-indolizine carboxamide], the results for the IC50 (at Bcl-2 protein; in test [1]) were 45 nM and 169 nM, respectively.
In the case of `Cl.[2H]C1([2H])Oc2cc(C(=O)N3Cc4ccccc4C[C@H]3CN3CCOCC3)c(-c3cc(C(=O)N(c4ccc(O)cc4)c4ccc5c(cnn5C)c4)c4n3CCCC4)cc2O1` [Example 50, N-(4-Hydroxyphenyl)-N-(1-methyl-1H-indazol-5-yl)-3-{2,2-dideuterio-6-[((3S)-3-(4-morpholinylmethyl)-3,4-dihydro-2(1H)-isoquinolinyl)carbonyl]-1,3-benzodioxol-5-yl}-5,6,7,8-tetrahydro-1-indolizine carboxamide hydrochloride], the IC50 on Bcl-2 protein was 13 nM; in test [1], 4.01 nM.
As for `Cl.[2H]C1([2H])Oc2cc(C(=O)N3Cc4ccccc4C[C@H]3CN3CCOCC3)c(-c3cc(C(=O)N(c4ccc(O)cc4)c4ccc(C)c(F)c4)c4n3CCCC4)cc2O1` [Example 51, N-(3-Fluoro-4-methylphenyl)-N-(4-hydroxyphenyl)-3-{2,2-dideuterio-6-[((3S)-3-(4-morpholinylmethyl)-3,4-dihydro-2(1H)-isoquinolinyl)carbonyl]-1,3-benzodioxol-5-yl}-5,6,7,8-tetrahydro-1-indolizine carboxamide hydrochloride], the IC50 turned out to be 32 nM on Bcl-2 protein and 26 nM in test [1].
In the same order, the values of `CN(C)C[C@@H]1Cc2ccccc2CN1C(=O)c1ccc(Cl)cc1-c1cc(C(=O)N(c2ccc(O)cc2)c2ccc3c(ccn3C)c2)c2n1CCCC2` [Example 52, 3-{5-Chloro-2-[((3S)-3-[(dimethylamino)methyl]-3,4-dihydro-2(1H)-isoquinolinyl)carbonyl]phenyl}-N-(4-hydroxyphenyl)-N-(1-methyl-1H-indol-5-yl)-5,6,7,8-tetrahydro-1-indolizine carboxamide hydrochloride] are 16 nM and 19.8 nM.

As usually defined, the IC50 is the concentration that inhibits the measured activity by half.

(Values after US9120791B2, “Indolizine compounds, a process for their preparation and pharmaceutical compositions containing them” (LES LABORATOIRES SERVIER, priority 2012, dated 2015).)
